Assay results as given in patent US20040162274A1, “Inhibition of steroid synthesis by use of progesterone or a progesterone receptor agonist” (priority 2002, published 2004).

Columns and labels:
Assay type in all cases: cell-based, rat
[1] = tested on: isolated Leydig cells of rats; experiment: hCG-induced cAMP production in isolated Leydig cells of rats (ELISA); conditions: for amount of cAMP formed in the cells in response to gonadotropic stimulation: FIGS. 2 and 3
Method: (§1) The testicles of young (three months old) and old (23-24 months old) Wistar rats (Charles River, Sulzfeld, Germany) were removed immediately after killing the rats by means of carbon dioxide anaesthesia and cervical dislocation.
(§2) In order to isolate and to purify the Leydig cells from the testicles of young and old rats, the decapsulated testicular mass of healthy Wistar rats was treated with collagenase (0.25 mg/ml) for 30 minutes at room temperature as described by Mukhopadhyay et al., Biochem. J., 239:463-467 (1986a), Mukhopadhyay et al., FEBS Lett., 202:111-116 (1986b)). The homogenous cell suspension so obtained was filtered through a nylon filter to obtain an impure Leydig cell preparation. After further purification by means of a Percoll gradient, the final number of high-grade purified Leydig cells was determined using a Neubauer chamber.
Aliquots of 100,000 cells per incubation tube were used for the experiments in which cAMP was measured. The cells were pre-incubated for 3 hours and subsequently incubated for 30 minutes with or without the addition of different concentrations of hCG as a surrogate for LH. In order to investigate the effect of the different steroids, Leydig cells were subjected to steroids for 3 hours as described. The cells were then stimulated with hCG (3 ng/ml) for 30 minutes. Incubation was stopped by the addition of absolute ethanol (final alcohol concentration ca. 80%) and subsequent mixing by means of vortices. The ethanol extract was evaporated until dry, and the residue dissolved in 1 ml of MEM, which contained 0.1% sodium azide. The amount of cAMP formed was determined by means of a specific ELISA, which was carried out as described in Budnik and Mukhopadhyay, FEBS Letters, 419:4-8 (1997). However, commercially available ELISAs, such as, for example, CM 59221 (IBL, Hamburg, Germany) or DE 0355 or DE 0450 (R&D Systems GmbH, Wiesbaden, Germany) can also be used.
Leydig cells were subjected to 3 different steroids for 3 hours (see FIG. 1). Subsequently, the cells were stimulated over 30 minutes with hCG (human chorion gonadotropin; 3 ng/ml) as a surrogate for LH.
The amount of cAMP formed was determined using a specific ELISA.

[2] = tested on: isolated Leydig cells of rats; experiment: hCG-induced testosterone production in isolated Leydig cells of rats; conditions: different concentrations for 3 hours, then hCG 5 ng/ml for 3 hours; testosterone in medium; FIG. 3
Method: as §1, §2
Similar culture conditions as described above were used for experiments, in which testosterone was measured. However, aliquots of 50,000 cells per incubation tube were used. […] The content of testosterone was determined by means of specific, commercially available kits (IBL, Hamburg). The amount of testosterone for 100,000 cells was calculated on the basis of the measured values.
Both R5020 and drospirenone are clearly, structurally different from testosterone. […] Then, the quantity of testosterone that accumulated in the medium was measured.

StAR protein = experiment: StAR expression in Leydig cells in vitro (northern blot)
Text: RNA was isolated from 1.5×10^6 high-quality cleaned Leydig cells, which were cultivated in 12-well plates (750,000 cells/well). The RNA was extracted in accordance with a modified single-step method of Chomczynski and Sacchi, Anal. Biochem., 162:156-159 (1987), using the small-scale phenol-free RNA isolation kit (Ambion Inc., Austin, Tex.). According to the size, the isolated RNA was separated by gel electrophoresis in a 1.2% agarose gel using the formaldhyde/morpholino-propane sulphonic acid method (Sambrook et al., Vol.1, 7.37, 7.39-7.52, Nolan, C. (Ed), Cold Spring Harbor Laboratory Press, Cold Spring Harbor, N.Y.). The transfer (blotting) of the RNA from the gel onto a nylon membrane (nytran, Schleicher and Schüll, Dassel, Germany) was carried out by capillary transfer using a downwards-directed transfer for 4 hours in accordance with the manufacturer's instructions (Ambion Inc., Austin, Tex.; AMS Biotechnology, Wiesbaden, Germany) with modifications by Chomczynski, P., Anal. Biochem., 201:134-139 (1992). […]
As the gestagens mentioned above apparently both have inhibitory effects on cAMP and on the production of steroids in gonadotropin-stimulated Leydig cells, the inhibitory effects of progesterone on the quantity of StAR protein expressed were analysed. […] At the end of the incubation, total RNA was extracted and StAR protein expression was analysed using northern blots. […]

SMILES: CCC(=O)[C@@]1(C)CC[C@H]2[C@@H]3CCC4=CC(=O)CCC4=C3CC[C@@]21C [R5020]
- amount of cAMP formed in the cells in response to gonadotropic stimulation [1]: drastically reduced
- effect on hCG-induced production of testosterone [2]: able to inhibit the production of testosterone

SMILES: C[C@]12CCC(=O)C=C1[C@@H]1C[C@@H]1[C@H]1[C@@H]3[C@@H]4C[C@@H]4[C@@]4(CCC(=O)O4)[C@@]3(C)CC[C@@H]12 [drospirenone]
- amount of cAMP formed in the cells in response to gonadotropic stimulation [1]: drastically reduced
- effect on hCG-induced production of testosterone [2]: able to inhibit the production of testosterone

SMILES: CC(=O)[C@H]1CC[C@H]2[C@@H]3CCC4=CC(=O)CC[C@]4(C)[C@H]3CC[C@]12C [progesterone, 4-pregnene-3,20-dione]
- effect on cAMP reaction to gonadotropin stimulation ([1]; Leydig cells subjected to steroid 3 hours, then hCG 3 ng/ml 30 minutes, FIG. 1): significantly inhibit
- effect on hCG-induced cAMP formation at 0.1 μmol/l ([1]; concentration 0.1 μmol/l (10^−7 mol/l)): almost no effects
- effect on hCG-induced cAMP formation, dose-response curve ([1]; dose-response curve, FIG. 2): dose-dependent inhibitory effect
- effect on hCG-induced cAMP formation at higher concentrations ([1]; higher concentrations, up to 2.5 μmol/l): clearly inhibitory effects
- hCG-stimulated amounts of StAR protein (StAR protein; pre-incubation 3 hours, then hCG 5 ng/ml 3 hours, Lane 4 vs Lane 2, FIG. 4): significant reduction
- expression of StAR protein in cells not treated with a gonadotropin (StAR protein; pre-treatment 3 hours, no hCG, Lane 3, FIG. 4): did not significantly affect
